Values joined by “and” are separate entries in the source; they are usually repeats but may differ in a detail not shown here. Equal entries are not always repeated.
Key:
[1] = system: 6-OHDA injected mice; assay: Anti-TH immunohistochemistry, 6-OHDA-induced striatal denervation; assay type: in vivo, mouse
Method: Immunohistochemistry analysis using anti-tyrosine hydroxylase (TH) antibody was performed in mouse midbrain sections to quantify 6-OHDA-induced striatal denervation in mice injected with 6-OHDA and non-injected (control) sides of the brain. […] In contrast, both the 6-OHDA/rapamycin-treated and the 6-OHDA/Formula II-treated sides of the brain show increased staining with the anti-TH antibody, as indicated by the dark shading in those figures. FIG. 3B presents the mean and standard error of the mean (SEM) of the integrated density of anti-TH antibody staining in the striatum, as well as statistical analysis of the results for the groups of mice.

[2] = biological target: T1, TORC2 (Homo sapiens, UniProt P42345+P62942); assay: IC50 in PC3 cells, TORC2; assay type: cell-based
T1 construct: endogenous in cells; host or cells: PC3 cells

[3] = biological target: T2, TORC1 (Homo sapiens, UniProt P42345+P62942); assay: IC50 in PC3 cells, TORC1; assay type: cell-based
T2 construct: endogenous in cells; host or cells: PC3 cells

[4] = Oral bioavailability; details: in vivo
Excerpt: In order to measure bioavailability in vivo, a compound may be administered to a test animal (e.g. mouse or rat) both intraperitoneally (i.p.) or intravenously (i.v.) and orally (p.o.) and blood samples are taken at regular intervals to examine how the plasma concentration of the drug varies over time. The time course of plasma concentration over time can be used to calculate the absolute bioavailability of the compound as a percentage using standard models. An example of a typical protocol is described below. […] The time-course of plasma or whole blood concentrations can then be used to derive key parameters such as the area under the plasma or blood concentration-time curve (AUC-which is directly proportional to the total amount of unchanged drug that reaches the systemic circulation), the maximum (peak) plasma or blood drug concentration, the time at which maximum plasma or blood drug concentration occurs (peak time), additional factors which are used in the accurate determination of bioavailability include: the compound's terminal half-life, total body clearance, steady-state volume of distribution and F %. These parameters are then analyzed by non-compartmental or compartmental methods to give a calculated percentage bioavailability, for an example of this type of method see Gallant-[…] et al, 2000 and […] et al, 1998, and references therein.

[5] = system: 6-OHDA injected mice; assay: 6-OHDA cylinder test (motor performance, contralateral touches); assay type: in vivo, mouse; details: 10 mg/kg, FIG. 2B
Method: An analysis of the neuroprotective effects of the compound of Formula II on motor performance was performed using the 6-OHDA cylinder test (FIG. 2A) which evaluates spontaneous motor changes associated with dopamine depletion in the striatum of 6-OHDA injected mice. […] Control mice were administered the vehicle control only. […] The data is presented in FIG. 2B as mean and standard error of the mean (SEM). Statistical analyses as compared to baseline mice were performed using the one-way Anova test (*: p<0.05; n.s.: not significant). […] Data is presented as mean and SEM. Statistical analyses were performed using One-way Anova test (*: p<0.05; ***: p<0.001. n.s.: not significant.)

[6] = Brain concentrations after IP administration to mice (LC-MS/MS); assay type: in vivo, mouse; details: for Formula II Concentrations in Mouse Brain / Formula II Concentrations in Mouse Brain, Mean: Day 3, 24.0 h
Method: To carry out these assays using brain homogenates, 20 uL of samples and matrix calibration standards into wells of a 96-well plate, and 10 uL of blank matrix allocated for matrix blanks and control blanks. 160 uL internal standard was then added to all samples except matrix blanks, and 160 uL ACN added to matrix blanks. Samples were then vortexed for 5 minutes and centrifuge for 5 minutes at >3500 rpm. 150 uL of the supernatant was then transferred to a new 96-well plate, and the plates blown down to dryness at 35° C., reconstituted with 90 uL of 70:30 water:acetonitrile (ACN) solution, covered and vortexed prior to analysis. LC and MS conditions were the same as described above for the whole blood analysis. […] The compound of Formula II was administered to mice at 2 mg/kg or 10 mg/kg for three days and the concentration of the compound in brain determined.

IC50 [2]: 5 nM
IC50 [3]: 0.099 nM
TORC1/TORC2 Selectivity ([3]; from IC50 values): 50x
bioavailability [4]: ~47%
Formula II Concentrations in Mouse Brain ([6]; Group 1, 2 mg/kg IP QD x 3 days, individual animals 7, 8, 9): 33.7 ng/g and 27.6 ng/g and 31.4 ng/g
Formula II Concentrations in Mouse Brain, Mean ([6]; Group 1, 2 mg/kg IP QD x 3 days): 30.9 ng/g
Formula II Concentrations in Mouse Brain ([6]; Group 2, 10 mg/kg IP QD x 3 days, individual animals 10, 11, 12): 121 ng/g and 136 ng/g and 224 ng/g
Formula II Concentrations in Mouse Brain, Mean ([6]; Group 2, 10 mg/kg IP QD x 3 days): 160 ng/g
Compound: CO[C@H]1C[C@@H]2CC[C@@H](C)[C@@](O)(C2)C(=O)C(=O)N2CCCC[C@H]2C(=O)O[C@H]([C@H](C)C[C@H]2C[C@H]3C[C@@H]2C[C@@H]3O)CC(=O)[C@H](C)/C=C(\C)[C@@H](O)[C@@H](OC)C(=O)[C@H](C)C[C@H](C)/C=C/C=C/C=C/1C [Formula II, C37-[(1R,2S,4R,5S)-5-hyhroxybicyclo[2.2.1]heptane] rapamycin]
6-OHDA-induced striatal denervation (anti-TH staining) compared with rapamycin ([1]; 6-OHDA injected mice, FIG. 3A): decreased 6-OHDA-induced denervation as compared to rapamycin
6-OHDA-induced striatal denervation (anti-TH staining) compared with vehicle control ([1]; 6-OHDA injected mice, FIG. 3A): decreased 6-OHDA-induced denervation as compared to vehicle control
integrated density of anti-TH staining in striatum, p versus vehicle control ([1]; one-way ANOVA, FIG. 3B): < 0.001
number of touches compared with rapamycin and vehicle control [5]: clearly outperformed rapamycin and the vehicle control
contralateral touches, difference from baseline (one-way Anova) ([5]; three days pre-treatment before 6-OHDA (80 μg)): non-significant difference from baseline
concentrations in brain over time (in words) ([6]; 2 mg/kg or 10 mg/kg IP QD for three days, mice): sufficient concentrations in brain overtime

From patent publication US20210369684A1 (MOUNT TAM THERAPEUTICS, INC., priority 2018, published 2021)
